Measurements published in patent publication US6635771B2, “N-benzhydryl indole compounds” (Wyeth, priority 2001, dated 2003).

Each compound was assayed against T1, cPLA2 (Homo sapiens, UniProt P47712) (assay: Coumarine Assay). Conditions: 60 μM 7-hydroxycoumarinyl 6-heptenoate substrate, 4 μg cPLA2, pH 7.5, fluorescence ex 360 nm / em 460 nm; read-out: Coumarin IC50.
T1 sequence (P47712 1-749): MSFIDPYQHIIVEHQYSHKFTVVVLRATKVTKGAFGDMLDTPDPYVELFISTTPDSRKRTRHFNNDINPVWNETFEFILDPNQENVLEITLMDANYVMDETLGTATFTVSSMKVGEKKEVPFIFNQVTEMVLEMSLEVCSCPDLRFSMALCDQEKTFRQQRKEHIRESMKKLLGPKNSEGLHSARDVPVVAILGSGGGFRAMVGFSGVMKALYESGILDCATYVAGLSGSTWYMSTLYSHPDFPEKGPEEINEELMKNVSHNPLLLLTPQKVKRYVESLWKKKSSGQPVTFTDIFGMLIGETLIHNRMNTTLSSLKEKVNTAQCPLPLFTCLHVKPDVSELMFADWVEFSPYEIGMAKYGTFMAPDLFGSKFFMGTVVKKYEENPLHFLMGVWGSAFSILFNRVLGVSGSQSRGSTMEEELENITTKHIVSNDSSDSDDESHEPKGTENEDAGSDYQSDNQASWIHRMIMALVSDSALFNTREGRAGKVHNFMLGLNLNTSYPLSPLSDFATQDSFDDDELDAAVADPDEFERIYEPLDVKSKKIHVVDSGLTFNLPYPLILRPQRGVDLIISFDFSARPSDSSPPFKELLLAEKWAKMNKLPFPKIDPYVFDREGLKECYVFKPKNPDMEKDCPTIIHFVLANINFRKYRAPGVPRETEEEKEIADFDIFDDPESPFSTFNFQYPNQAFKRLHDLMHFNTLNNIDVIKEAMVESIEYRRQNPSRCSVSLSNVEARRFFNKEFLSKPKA
Assay type: biochemical
With `N#Cc1ccc(CS(=O)(=O)NCCc2c(CCOc3ccc(C(=O)O)cc3)c3cc(Cl)ccc3n2C(c2ccccc2)c2ccccc2)cc1` [Example 37, 4-{2-[1-Benzhydryl-5-chloro-2-(2-{[(4-cyanobenzyl)sulfonyl]amino}ethyl)-1H-indol-3-yl]ethoxy}benzoic acid] the IC50 was 0.37 µM. Work on `Cc1ccccc1CS(=O)(=O)NCCc1c(CCCc2ccc(C(=O)O)cc2)c2cc(Cl)ccc2n1C(c1ccccc1)c1ccccc1` [Example 70, 4-{3-[1-Benzhydryl-5-chloro-2-(2-{[(2-methylbenzyl)sulfonyl]amino}ethyl)-1H-indol-3-yl]propyl}benzoic acid] yielded an IC50 of 0.18 µM. Work on `O=C(O)c1ccc(CCCc2c(CCNS(=O)(=O)Cc3cccc(C(F)(F)F)c3)n(C(c3ccccc3)c3ccccc3)c3ccc(Cl)cc23)cc1` [Example 59, 4-(3-{1-benzhydryl-5-chloro-2-[2-({[3-(trifluoromethyl)benzyl]sulfonyl}amino)ethyl]-1H-indol-3-yl}propyl)benzoic acid] yielded an IC50 of 0.29 µM. With `O=C(O)c1ccc(CCCc2c(CCNS(=O)(=O)Cc3ccc(Cl)c(Cl)c3)n(C(c3ccccc3)c3ccccc3)c3ccccc23)cc1` [Example 127, 4-{3-[1-benzhydryl-2-(2-{[(3,4-dichlorobenzyl)sulfonyl]amino}ethyl)-1H-indol-3-yl]propyl}benzoic acid] the IC50 was 0.2 µM. Compound `Cc1cc(C)n(CCS(=O)(=O)NCCc2c(CCOc3ccc(C(=O)O)cc3)c3cc(Cl)ccc3n2C(c2ccccc2)c2ccccc2)n1` [Example 93, 4-(2-{1-benzhydryl-5-chloro-2-[2-({[2-(3,5-dimethyl-1H-pyrazol-1-yl)ethyl]sulfonyl}amino)ethyl]-1H-indol-3-yl}ethoxy)benzoic acid] has an IC50 of 0.56 µM. Compound `O=C(O)c1ccc(OCCc2c(CCNS(=O)(=O)Cc3cc(Cl)cc(Cl)c3)n(C(c3ccccc3)c3ccccc3)c3cc(Cl)ccc23)cc1` [Example 107, 4-[2-{1-Benzhydryl-6-chloro-2-[2-(3,5-dichloro-phenylmethanesulfonylamino)-ethyl]-1H-indol-3-yl}-ethoxy)-benzoic acid] has an IC50 of 0.33 µM. Work on `O=C(O)c1ccc(OCCc2c(CCNS(=O)(=O)Cc3ccc(OC(F)(F)F)cc3)n(C(c3ccccc3)c3ccccc3)c3ccc(Cl)cc23)cc1` [Example 71, 4-{2-[1-Benzhydryl-5-chloro-2-(2-{[(4-trifluorometoxybenzyl)sulfonyl]amino}ethyl)-1H-indol-3-yl]ethoxy}benzoic acid] yielded an IC50 of 0.45 µM. `Cc1cccc(Cl)c1SCS(=O)(=O)NCCc1c(CCOc2ccc(C(=O)O)cc2)c2cc(Cl)ccc2n1C(c1ccccc1)c1ccccc1` [Example 84] was tested, and the IC50 was 0.5 µM. For `O=C(O)c1ccc(S(=O)(=O)CCc2c(CCNS(=O)(=O)Cc3ccccc3)n(C(c3ccccc3)c3ccccc3)c3ccc(Cl)cc23)cc1` [Example 135], the IC50 was 0.2 µM. `O=C(O)c1ccc(OCCc2c(CCNS(=O)(=O)c3ccc4ccccc4c3)n(C(c3ccccc3)c3ccccc3)c3ccc(Cl)cc23)cc1` [Example 26, 4-[2-(1-benzhydryl-5-chloro-2-{2-[(2-naphthylsulfonyl)amino]ethyl}-1H-indol-3-yl)ethoxy]benzoic acid] gave an IC50 of 1.1 µM. `Cc1cccc(C)c1CS(=O)(=O)NCCc1c(CCS(=O)(=O)c2ccc(C(=O)O)cc2)c2cc(Cl)ccc2n1C(c1ccccc1)c1ccccc1` [Example 141, 4-({2-[1-benzhydryl-5-chloro-2-(2-{[(2,6-dimethylbenzyl)sulfonyl]amino}ethyl) 1H-indol-3-yl]ethyl}sulfonyl)benzoic acid] showed an IC50 of 0.17 µM. For `O=C(O)c1ccc(S(=O)(=O)CCc2c(CCNS(=O)(=O)Cc3ccc(Cl)c(Cl)c3)n(C(c3ccccc3)c3ccccc3)c3ccc(Cl)cc23)cc1` [Example 140, 4-({2-[1-benzhydryl-5-chloro-2-(2-{[(3,4-dichlorobenzyl)sulfonyl]amino}ethyl)1H-indol-3-yl]ethyl}sulfonyl)benzoic acid], the IC50 was 0.2 µM. `O=C(O)c1ccc(OCCc2c(CCNS(=O)(=O)CCNC(=O)c3ccccc3C(=O)O)n(C(c3ccccc3)c3ccccc3)c3ccc(Cl)cc23)cc1` [Example 48, 2-{[(2-{[(2-{1-benzhydryl-3-[2-(4-carboxyphenoxy)ethyl]-5-chloro-1H-indol-2-yl}ethyl)amino]sulfonyl}ethyl)amino]carbonyl}benzoic acid] was tested, and the IC50 was 2.35 µM. Work on `O=C(O)c1ccc(OCCc2c(CCNS(=O)(=O)CCN3CCC(O)CC3)n(C(c3ccccc3)c3ccccc3)c3ccc(Cl)cc23)cc1` [Example 123, 4-[2-(1-Benzhydryl-5-chloro-2-{2-[2-(4-hydroxy-piperidin-1-yl)-ethanesulfonylamino]-ethyl}-1H-indol-3-yl)-ethoxy]-benzoic acid] yielded an IC50 of 1.7 µM. Compound `Cc1ccn(CCS(=O)(=O)NCCc2c(CCOc3ccc(C(=O)O)cc3)c3cc(Cl)ccc3n2C(c2ccccc2)c2ccccc2)n1` [Example 94, 4-(2-{1-benzhydryl-5-chloro-2-[2-({[2-(3-methyl-1H-pyrazol-1-yl)ethyl]sulfonyl}amino)ethyl]-1H-indol-3-yl}ethoxy)benzoic acid] has an IC50 of 0.8 µM. With `O=C(O)c1ccc(OCCc2c(CCNS(=O)(=O)CCN3CCCCC3)n(C(c3ccccc3)c3ccccc3)c3ccc(Cl)cc23)cc1` [Example 117] the IC50 was 1.6 µM. `CC1CCC(C)N1CCS(=O)(=O)NCCc1c(CCOc2ccc(C(=O)O)cc2)c2cc(Cl)ccc2n1C(c1ccccc1)c1ccccc1` (stereo not drawn) [Example 115, 4-[2-(1-Benzhydryl-5-chloro-2-{2-[2-(2,5-dimethyl-pyrrolidin-1-yl)-ethanesulfonylamino]-ethyl}-1H-indol-3-yl)-ethoxy]-benzoic acid] was tested, and the IC50 was 0.9 µM. `O=C(O)c1ccc(OCCc2c(CCNS(=O)(=O)CC3CCCCO3)n(C(c3ccccc3)c3ccccc3)c3ccc(Cl)cc23)cc1` (stereo not drawn) [Example 109, 4-{2-[1-Benzhydryl-5-chloro-2-(2-{[(tetrahydro-2H-pyran-2-ylmethyl)sulfonyl]amino}ethyl)-1H-indol-3-yl]ethoxy}benzoic acid] was tested, and the IC50 was 0.4 µM. With `O=C(O)c1ccc(OCCc2c(CCNS(=O)(=O)Cc3ccc(Cl)cc3[N+](=O)[O-])n(C(c3ccccc3)c3ccccc3)c3ccc(Cl)cc23)cc1` [Example 32, 4-{2-[1-benzhydryl-5-chloro-2-(2-{[(4-chloro-2-nitrobenzyl)sulfonyl]amino}ethyl)-1H-indol-3-yl]ethoxy}benzoic acid] the IC50 was 0.085 µM. `O=C(O)c1ccc(CCCc2c(CCNS(=O)(=O)Cc3ccc(C(F)(F)F)cc3)n(C(c3ccccc3)c3ccccc3)c3ccc(Cl)cc23)cc1` [Example 58, 4-(3-{1-benzhydryl-5-chloro-2-[2-({[4-(trifluoromethyl)benzyl]sulfonyl}amino)ethyl]-1H-indol-3-yl}propyl)benzoic acid] was tested, and the IC50 was 0.36 µM. For `O=C(O)c1ccc(OCCc2c(CCNS(=O)(=O)Cc3nc4ccccc4o3)n(C(c3ccccc3)c3ccccc3)c3ccc(Cl)cc23)cc1` [Example 110, 4-{2-[1-Benzhydryl-2-(2-{[(1,3-benzoxazol-2-ylmethyl)sulfonyl]amino}ethyl)-5-chloro-1H-indol-3-yl]ethoxy}benzoic acid], the IC50 was 0.5 µM. With `O=C(O)c1ccc(CCCc2c(CCNS(=O)(=O)Cc3cc(Cl)cc(Cl)c3)n(C(c3ccccc3)c3ccccc3)c3ccc(Cl)cc23)cc1` [Example 43, 4-{3-[1-benzhydryl-5-chloro-2-(2-{[(3,5-dichlorobenzyl)sulfonyl]amino}ethyl)-1H-indol-3-yl]propyl}benzoic acid] the IC50 was 0.2 µM. With “4-{2-[1-Benzhydryl-5-chloro-2-(2-{[(2-cyanobenzyl)sulfonyl]amino}ethyl)-1H-indol-3-yl]ethoxy)benzoic acid [Example 35]” the IC50 was 0.33 µM. For `O=C(O)CCc1ccc(S(=O)(=O)CCc2c(CCNS(=O)(=O)Cc3ccccc3F)n(C(c3ccccc3)c3ccccc3)c3ccc(Cl)cc23)cc1` [Example 132, 3-[4-({2-[1-benzhydryl-5-chloro-2-(2-{[(2-fluorobenzyl)sulfonyl]amino}ethyl)-1H-indol-3-yl]ethyl}sulfonyl)phenyl] propanoic acid], the IC50 was 0.2 µM. With `O=C(O)c1ccc(OCCc2c(CCNS(=O)(=O)CSc3ccccc3)n(C(c3ccccc3)c3ccccc3)c3ccc(Cl)cc23)cc1` [Example 81, 4-(2-{1-benzhydryl-5-chloro-2-[2-({[(phenylsulfanyl)methyl]sulfonyl}amino)ethyl]-1H-indol-3-yl}ethoxy)benzoic acid] the IC50 was 0.47 µM. In the case of `NS(=O)(=O)c1ccc(CS(=O)(=O)NCCc2c(CCOc3ccc(C(=O)O)cc3)c3cc(Cl)ccc3n2C(c2ccccc2)c2ccccc2)cc1` [Example 39, 4-(2-{2-[2-({[4-(Aminosulfonyl)benzyl]sulfonyl}amino)ethyl]-1-benzhydryl-5-chloro-1H-indol-3-yl}ethoxy)benzoic acid], the IC50 is reported as 0.32 µM. `O=C(O)c1ccc(CCCc2c(CCNS(=O)(=O)Cc3c(F)cccc3F)n(C(c3ccccc3)c3ccccc3)c3ccc(Cl)cc23)cc1` [Example 126, 4-{3-[1-benzhydryl-5-chloro-2-{2-([(2,6-difluorobenzyl)sulfonyl]amino}ethyl)-1H-indol-3-yl]propyl}benzoic acid] was tested, and the IC50 was 0.2 µM.
